Values after ≈ are worked out from the molar mass of the structure shown.
Key:
Assay type in all cases: functional
Helicobacter pylori [1] = test: Antibacterial activity was evaluated against Helicobacter pylori (8007).
Staphylococcus aureus = test: Antibacterial activity was evaluated against Staphylococcus aureus (209P JC-1)
Escherichia coli = test: Antibacterial activity was evaluated against Escherichia coli (NIHJ JC-2)
Enterococcus faecalis = test: Antibacterial activity was evaluated against Enterococcus faecalis (0115)
Moraxella catarrhalis = test: Antibacterial activity was evaluated against M.(B).catarrhalis (6014)
Helicobacter pylori [2] = test: Antibacterial activity was evaluated against Helicobacter pylori (13001).
Helicobacter pylori [3] = test: Antibacterial activity was evaluated against Helicobacter pylori (FP1757).
Helicobacter pylori [4] = test: Antibacterial activity was evaluated against Helicobacter pylori (9005).
Serratia marcescens = test: Antibacterial activity was evaluated against Serratia marcescens (3013)

Compound | MIC (Helicobacter pylori [1]) | MIC (Staphylococcus aureus) | MIC (Escherichia coli) | MIC (Enterococcus faecalis) | MIC (Moraxella catarrhalis) | MIC (Helicobacter pylori [2]) | MIC (Helicobacter pylori [3]) | MIC (Helicobacter pylori [4]) | MIC (Serratia marcescens)
CC1(C)S[C@@H]2[C@H](NC(=O)[C@H](N)c3ccc(O)cc3)C(=O)N2[C@H]1C(=O)O [AMOXICILLIN] | 0.1 µg/mL (≈ 0.274 µM) | 0.05 µg/mL (≈ 0.137 µM) | 3.13 µg/mL (≈ 8.57 µM) | 0.39 µg/mL (≈ 1.07 µM) | 0.39 µg/mL (≈ 1.07 µM) | 0.025 µg/mL (≈ 0.0684 µM) | 0.025 µg/mL (≈ 0.0684 µM) | 0.1 µg/mL (≈ 0.274 µM) | > 100 µg/mL
c1cc(OCc2cccc3nonc23)c2ccncc2c1 | 0.39 µg/mL (≈ 1.41 µM) |  |  |  |  | 0.2 µg/mL (≈ 0.721 µM) | 0.78 µg/mL (≈ 2.81 µM) | 0.78 µg/mL (≈ 2.81 µM) | 
CC(=O)Nc1cccc(COc2cccc3cnccc23)c1 | 0.78 µg/mL (≈ 2.67 µM) |  |  |  |  | 0.78 µg/mL (≈ 2.67 µM) | 1.56 µg/mL (≈ 5.34 µM) | 0.78 µg/mL (≈ 2.67 µM) | 
Oc1cccc2cnccc12 | 25 µg/mL (≈ 172 µM) |  |  |  |  | 25 µg/mL (≈ 172 µM) | 50 µg/mL (≈ 344 µM) | 50 µg/mL (≈ 344 µM) | 
CC(=O)Nc1cc(Cl)cc(COc2cccc3cnccc23)c1Cl | 0.39 µg/mL (≈ 1.08 µM) |  |  |  |  | 0.2 µg/mL (≈ 0.554 µM) | 0.39 µg/mL (≈ 1.08 µM) | 0.39 µg/mL (≈ 1.08 µM) | 
CC(=O)Nc1ccc(Cl)c(COc2cccc3cnccc23)c1Cl | 0.025 µg/mL (≈ 0.0692 µM) | > 100 µg/mL | > 100 µg/mL | > 100 µg/mL | > 100 µg/mL | 0.025 µg/mL (≈ 0.0692 µM) | 0.0125 µg/mL (≈ 0.0346 µM) | 0.05 µg/mL (≈ 0.138 µM) | > 100 µg/mL
CC[C@H]1OC(=O)[C@H](C)[C@@H](O[C@H]2C[C@@](C)(OC)[C@@H](O)[C@H](C)O2)[C@H](C)[C@@H](O[C@@H]2O[C@H](C)C[C@H](N(C)C)[C@H]2O)[C@](C)(OC)C[C@@H](C)C(=O)[C@H](C)[C@@H](O)[C@]1(C)O [CLARITHROMYCIN] | 0.05 µg/mL (≈ 0.0668 µM) | 0.1 µg/mL (≈ 0.134 µM) | 100 µg/mL (≈ 134 µM) | 0.2 µg/mL (≈ 0.267 µM) | < 0.025 µg/mL | 0.05 µg/mL (≈ 0.0668 µM) | 0.05 µg/mL (≈ 0.0668 µM) | 0.1 µg/mL (≈ 0.134 µM) | 100 µg/mL (≈ 134 µM)
c1ccc(COc2cccc3cnccc23)cc1 | 1.56 µg/mL (≈ 6.63 µM) |  |  |  |  | 0.78 µg/mL (≈ 3.32 µM) | 1.56 µg/mL (≈ 6.63 µM) | 1.56 µg/mL (≈ 6.63 µM) | 

The next lines start with the values.

MIC (Helicobacter pylori [1]) | MIC (Staphylococcus aureus) | MIC (Escherichia coli) | MIC (Enterococcus faecalis) | MIC (Moraxella catarrhalis) | MIC (Helicobacter pylori [2]) | MIC (Helicobacter pylori [3]) | MIC (Helicobacter pylori [4]) | MIC (Serratia marcescens) | Compound
1.56 µg/mL (≈ 4.47 µM) |  |  |  |  | 1.56 µg/mL (≈ 4.47 µM) | 1.56 µg/mL (≈ 4.47 µM) | 1.56 µg/mL (≈ 4.47 µM) |  | O=[N+]([O-])c1ccc(Cl)c(COc2cccc3cnccc23)c1Cl
0.39 µg/mL (≈ 1.37 µM) |  |  |  |  | 0.39 µg/mL (≈ 1.37 µM) | 0.39 µg/mL (≈ 1.37 µM) | 0.39 µg/mL (≈ 1.37 µM) |  | Nc1ccc(Cl)c(COc2cccc3cnccc23)c1
0.78 µg/mL (≈ 2.44 µM) |  |  |  |  | 0.78 µg/mL (≈ 2.44 µM) | 0.78 µg/mL (≈ 2.44 µM) | 0.78 µg/mL (≈ 2.44 µM) |  | Nc1ccc(Cl)c(COc2cccc3cnccc23)c1Cl
0.78 µg/mL (≈ 2.39 µM) |  |  |  |  | 0.78 µg/mL (≈ 2.39 µM) | 1.56 µg/mL (≈ 4.77 µM) | 0.78 µg/mL (≈ 2.39 µM) |  | CC(=O)Nc1ccc(Cl)c(COc2cccc3cnccc23)c1
1.56 µg/mL (≈ 6.23 µM) |  |  |  |  | 0.78 µg/mL (≈ 3.12 µM) | 1.56 µg/mL (≈ 6.23 µM) | 1.56 µg/mL (≈ 6.23 µM) |  | Nc1cccc(COc2cccc3cnccc23)c1
0.39 µg/mL (≈ 1.19 µM) |  |  |  |  | 0.39 µg/mL (≈ 1.19 µM) | 0.39 µg/mL (≈ 1.19 µM) | 0.39 µg/mL (≈ 1.19 µM) |  | CC(=O)Nc1cccc(COc2cccc3cnccc23)c1Cl
≥ 12.5 µg/mL |  |  |  |  | ≥ 12.5 µg/mL | ≥ 12.5 µg/mL | ≥ 12.5 µg/mL |  | CC(=O)Nc1c(Cl)ccc(Cl)c1COc1cccc2cnccc12
0.78 µg/mL (≈ 2.56 µM) |  |  |  |  | 0.78 µg/mL (≈ 2.56 µM) | 0.78 µg/mL (≈ 2.56 µM) | 1.56 µg/mL (≈ 5.13 µM) |  | Clc1cccc(Cl)c1COc1cccc2cnccc12
0.39 µg/mL (≈ 1.37 µM) |  |  |  |  | 0.2 µg/mL (≈ 0.702 µM) | 0.78 µg/mL (≈ 2.74 µM) | 0.39 µg/mL (≈ 1.37 µM) |  | Nc1cccc(COc2cccc3cnccc23)c1Cl
